# Data taken from US4022884A, “Gardimycin and process for producing same” (Gruppo Lepetit S.p.A., priority 1974, dated 1977).
# Key:
# [1] = tested on: clinically isolated Streptococcus strains; test: Activity against clinically isolated Streptococcus strains, general statement; format: cell-based; settings: in words
# Excerpt: (§1) Another favorable characteristic of the antibiotic substance gardimycin is that it is active against clinically isolated Streptococcus strains.
# [2] = tested on: pathogenic bacteria of the genus Diplococcus and Streptococcus; test: In vivo activity against experimental infections in mice, general statement; settings: in words
# [3] = tested on: Staphylococcus aureus ATCC 538; test: In vitro minimal inhibitory concentration (Table 1); format: cell-based
# Excerpt: (§2) Metabolite A, metabolite B (hereafter referred to as gardimycin) as well as its salts with alkali and alkali earth metals and metabolite C show good antibacterial in vitro and in vivo activities.
# [4] = tested on: Diplococcus pneumoniae UC 41; test: as above; format: cell-based
# Excerpt: as §2
# [5] = tested on: Micrococcus flavus ATCC 10240; test: as above; format: cell-based
# Excerpt: as §2
# [6] = tested on: Streptococcus haemolyticus C 203; test: as above; format: cell-based
# Excerpt: as §2
# [7] = tested on: Neisseria gonorrheae ATCC 9826; test: as above; format: cell-based
# Excerpt: as §2
# [8] = tested on: Streptococcus faecalis ATCC 10541; test: as above; format: cell-based
# Excerpt: as §2
# [9] = Antibacterial in vitro activity, general statement; format: cell-based; settings: in words
# Excerpt: as §2
# Toxicity (LD50) = format: in vivo
# [10] = Antibacterial in vivo activity, general statement; settings: in words
# Excerpt: as §2
# [11] = tested on: Streptococcus haemolyticus C 203; test: Experimental infection in mice; format: in vivo
# [12] = tested on: Streptococcus haemolyticus; test: Minimal inhibitory concentration, clinically isolated strains (Table 2); format: cell-based
# Excerpt: as §1
# Streptococcus viridans = test: as above; format: cell-based
# Excerpt: as §1
# [13] = tested on: Diplococcus pneumoniae UC 41; test: Experimental infection in mice; format: in vivo
# [14] = tested on: Clostridium perfringens ISS 30543; format: cell-based
substance,measurement,setting,value
gardimycin,activity against clinically isolated Streptococcus strains,[1],active
same,in vivo activity against experimental infections,[2],very interesting in vivo activity
same,Minimal inhibitory concentration,[3],50 µg/mL
same,Minimal inhibitory concentration,[4],50 µg/mL
same,Minimal inhibitory concentration,[5],1 µg/mL
same,Minimal inhibitory concentration,[6],2 µg/mL
same,Minimal inhibitory concentration,[7],20 µg/mL
same,Minimal inhibitory concentration,[8],50 µg/mL
same,antibacterial in vitro activity,[9],good
same,LD50,Toxicity (LD50); i.p.,higher than 1000 mg/Kg
same,LD50,Toxicity (LD50); i.v.,about 2000 mg/Kg
same,toxicity,Toxicity (LD50); in words,very low toxicity
same,antibacterial in vivo activity,[10],good
same,ED50,[11],0.75 mg/kg
same,Minimal inhibitory concentration,[12]; clinically isolated strain 2078,1 µg/mL
same,Minimal inhibitory concentration,[12]; clinically isolated strain 2087,1 µg/mL
same,Minimal inhibitory concentration,Streptococcus viridans; clinically isolated strain 2057,5 µg/mL
same,Minimal inhibitory concentration,Streptococcus viridans; clinically isolated strain 2085,2 µg/mL
same,ED50,[13],30 mg/kg
same,Minimal inhibitory concentration,[14],2 µg/mL
